Test results taken from patent publication US6723897B2, “Methods for controlling gibberellin levels” (Monsanto Technology, LLC, priority 1998, dated 2004).

Tests used:
[1] = test system: wild-type soybeans (line A3237); assay: Summary of first two greenhouse experiments, elongation of wild-type soybeans
Protocol: Compounds are first prepared as 25 mg/ml solutions in ethanol as described above, and then diluted into 40 ml of water to prepare the final 0.25 mg/ml treatment solutions. Visual observations on solubilities (milky, clear, etc.) of the treatment solutions are noted. The treatment solutions are divided into two 20 ml portions, each in 50 ml plastic centrifuge tubes. In addition to treating seeds with solutions containing the test compounds, untreated seeds and seeds imbibed in ethanol-water solution (300 μl ethanol in 30 mls of water) are also included in this experiment as controls. In the latter case, 20 seeds are imbibed in 30 mls of solution for six hours.
Two soybean varieties are selected for testing: constitutively GA-deficient transgenic dwarf soybean line 719 (plasmid pMON29801, constitutive FMV promoter/asCPScc; which is a mixture of 719−2 and 719+17), and A3237, the wild-type parent material. […] After imbibition, seeds are removed from the test tubes, placed on wax paper to dry, and planted in bread pans containing farm soil amended with fertilizer at 20 seeds/pan. Seeds are covered with 0.5″ of vermiculite. Pans are transferred to the greenhouse, which had day/night temperatures of 86/68° F. (30/20° C.), and subirrigated. Illumination is at a light intensity of 300-400 μmolm^−2s^−1 photosynthetic photon flux; 16 hours light/8 hours dark. Subsequent waterings are also through sub-irrigation until the test is terminated three weeks later. Observations included the number of dwarf, intermediate, and tall plants; plant height; uniformity of rescue; and any visual effects.
All compounds are tested at final concentrations of 0.25, 0.025, and 0.0025 mg/ml except for GA9, which is tested at 0.125, 0.0125, and 0.00125 mg/ml. (The compounds are tested in Experiment I at only one concentration, i.e., 0.25 mg/ml). Test tubes contained […] of ethanol solution per tube. Final volumes are made up to 30 ml with deionized water. After shaking, the treatment solutions (15 ml each) are transferred to each of two 50 ml test tubes. Treatments 1 to 27 are performed on wild-type line A3237; treatments 28 to 54 are performed on constitutively GA-deficient transgenic dwarf soybean line 719 (a mixture of 719−2 and 719+17). Twenty seeds are used in each treatment. Dry seed, ethanol/water-imbibed seed (1% ethanol in water, v/v), and water-imbibed seeds are included as controls. Seeds are imbibed for 6 hours in the test solutions, then planted in bread pans containing Metromix 350 (The Scotts Company, Marysville, Ohio), and covered with 0.5″ Metro-mix. Covered pans are transferred to the greenhouse and subirrigated. Illumination is at a light intensity of 300-400 μmolm^−2s^−1 photosynthetic photon flux; 16 hours light/8 hours dark. Subsequent waterings are also through sub-irrigation until the test is terminated three weeks later. Observations included the number of dwarf, intermediate, and tall plants; plant height; uniformity of rescue; and any visual effects. Digital photographs are also taken.

[2] = test system: transgenic line 719 soybean; assay: Field trial of seed coatings under soil compaction / different soils, GA-deficient soybean; type: in vivo, Glycine max; conditions: for Count (emergence) / Dwarfs (number of dwarfs not rescued) / Dwarfs (number not rescued): Line 719; for rank of potential for rescuing GA-deficient dwarf soybeans without decreasing emergence: based on the last two field trials; for best to least selectivity order: emergence under soil compaction, margin of selectivity, rescue without overelongation
[3] = 0.0025 mg/ml solution (ethanol-water)
[4] = 0.025 mg/ml solution (ethanol-water)
[5] = 0.25 mg/ml solution (ethanol-water)
[6] = Heavy soil - Loose, target rate 0.5 μg/seed, Table 23
[7] = Heavy soil - Loose, target rate 2.0 μg/seed, Table 23
[8] = Heavy soil - Loose, target rate 4.0 μg/seed, Table 23
[9] = Heavy soil - compacted, target rate 0.5 μg/seed, Table 23
[10] = Heavy soil - compacted, target rate 2.0 μg/seed, Table 23
[11] = Heavy soil - compacted, target rate 4.0 μg/seed, Table 23
[12] = Heavy soil - loose, target rate 0.5 μg/seed, Table 22
[13] = Heavy soil - loose, target rate 2.0 μg/seed, Table 22
[14] = Light soil - Compacted, target rate 0.5 μg/seed, Table 22
[15] = Light soil - Compacted, target rate 2.0 μg/seed, Table 22
[16] = Light soil - Loose, target rate 0.5 μg/seed, Table 24
[17] = Light soil - Loose, target rate 2.0 μg/seed, Table 24
[18] = Light soil - Loose, target rate 4.0 μg/seed, Table 24
[19] = Light soil - compacted, target rate 0.5 μg/seed, Table 24
[20] = Light soil - compacted, target rate 2.0 μg/seed, Table 24
[21] = Light soil - compacted, target rate 4.0 μg/seed, Table 24

Compound | Elongation of wild-type soybeans [1, 3] | Elongation of wild-type soybeans [1, 4] | Elongation of wild-type soybeans [1, 5] | Count (emergence) [2, 6] [bcd] | Dwarfs (number of dwarfs not rescued) [2, 6] | Count (emergence) [2, 7] | Dwarfs (number of dwarfs not rescued) [2, 7] | Count (emergence) [2, 8] | Dwarfs (number of dwarfs not rescued) [2, 8] [e] | Count (emergence) [2, 9] | Dwarfs (number of dwarfs not rescued) [2, 9] | Count (emergence) [2, 10] | Dwarfs (number of dwarfs not rescued) [2, 10] [days] | Count (emergence) [2, 11] | Dwarfs (number of dwarfs not rescued) [2, 11] [days] | Count (emergence) [2, 12] [bcd] | Dwarfs (number of dwarfs not rescued) [2, 12] | Count (emergence) [2, 13] | Dwarfs (number of dwarfs not rescued) [2, 13] | Count (emergence) [2, 14] | also measured
C=C1C[C@@]23CC[C@H]4[C@@](C)(CCC[C@@]4(C)C(=O)O)[C@@H]2CC[C@@H]1C3 [kaurenoic acid] | 0 | 0 | − |  |  |  |  |  |  |  |  |  |  |  |  |  |  |  |  |  | 
C=C1C[C@]23C[C@@]1(O)CC[C@H]2[C@@]12CC=C[C@@](C)(C(=O)O1)[C@H]2[C@@H]3C(=O)O [GA5] | 0 | 0 | + | 31.7 | 2.0 cde | 32.3 bcd | 0.7 cde | 30.3 bcd | 0 | 18.3 ab | 0 days | 9.0 g·days | 0 | 7.0 efg | 0 | 32 | 2.0 cde | 32 bcd | 0.7 cde | 39 abc | Dwarfs (number of dwarfs not rescued) [2, 14]: 0 days; Count (emergence) [2, 15]: 30 a-f; Dwarfs (number of dwarfs not rescued) [2, 15]: 0 days; Count (emergence) [2, 16]: 46.3 a; Dwarfs (number not rescued) [2, 16]: 1.0 e; Count (emergence) [2, 17]: 43.3 ab; Dwarfs (number not rescued) [2, 17]: 0 e; Count (emergence) [2, 18]: 45.0 ab; Dwarfs (number not rescued) [2, 18]: 0 e; Count (emergence) [2, 19]: 39.0 abc; Dwarfs (number not rescued) [2, 19]: 0; Count (emergence) [2, 20]: 30.3 a-f; Dwarfs (number not rescued) [2, 20]: 0; Count (emergence) [2, 21]: 32.7 a-e; Dwarfs (number not rescued) [2, 21]: 0; rank of potential for rescuing GA-deficient dwarf soybeans without decreasing emergence [2]: GA9>GA5>GA3-3-acetate>GA3>GA12; best to least selectivity order ([2]; Table 22): GA9>GA5>GA3-3-acetate>GA3
C=C1C[C@]23C[C@@]1(O)CC[C@H]2[C@@]12C=C[C@H](OC(C)=O)[C@@](C)(C(=O)O1)[C@H]2[C@@H]3C(=O)O [GA3-3-acetate] |  |  |  | 31.3 | 0.3 de | 27.3 cd | 0 e | 18.3 ef | 0 | 10.3 c-f | 0.3 cd | 7.3 efg | 0 | 2.0 g | 0 | 31 | 3.3 c | 27 cd | 0.3 de | 25 def | Dwarfs (number of dwarfs not rescued) [2, 14]: 0 days; Count (emergence) [2, 15]: 22 efg; Dwarfs (number of dwarfs not rescued) [2, 15]: 0 days; Count (emergence) [2, 16]: 45.3 ab; Dwarfs (number not rescued) [2, 16]: 0.3 e; Count (emergence) [2, 17]: 43.3 ab; Dwarfs (number not rescued) [2, 17]: 0 c; Count (emergence) [2, 18]: 42.7 ab; Dwarfs (number not rescued) [2, 18]: 0 c; Count (emergence) [2, 19]: 25.3 def; Dwarfs (number not rescued) [2, 19]: 0; Count (emergence) [2, 20]: 22.0 efg; Dwarfs (number not rescued) [2, 20]: 0; Count (emergence) [2, 21]: 33.7 a-e; Dwarfs (number not rescued) [2, 21]: 0; rank of potential for rescuing GA-deficient dwarf soybeans without decreasing emergence [2]: GA9>GA5>GA3-3-acetate>GA3>GA12; best to least selectivity order ([2]; Table 22): GA9>GA5>GA3-3-acetate>GA3
